Data reported in article PMC4472782, “Antibacterial Characterization of Novel Synthetic Thiazole Compounds against Methicillin-Resistant Staphylococcus pseudintermedius” (PLoS ONE, 2015).
In brackets after ≈: the same amount, converted by molar mass. Structures can show the parent of a compound that is named as a salt. Where two headings read alike, the source gives them in different places.

Columns and labels:
[1] = system: methicillin-resistant Staphylococcus pseudintermedius; assay: MBC determination against MRSP clinical isolates; assay type: cell-based; settings: six MRSP isolates
Procedure: (§1) The MBC was determined by plating 5 μL from wells on the 96-well microtiter plate (where the MIC was determined) where no growth was observed onto Tryptic soy agar (TSA) plates. […] The MBC was categorized as the concentration where ≥99% reduction in bacterial cell count was observed.

[2] = system: methicillin-sensitive Staphylococcus pseudintermedius; assay: MIC by broth microdilution against MSSP clinical isolates; assay type: cell-based; settings: nine MSSP isolates, triplicate
Procedure: (§2) Fifteen isolates of S. pseudintermedius (nine MSSP and six MRSP), identified at the Indiana Animal Disease Diagnostic Laboratory from specimens collected from dogs admitted to the small animal teaching hospital at Purdue University, were included in the study. The specimens were not collected specifically for this research study but were obtained from patients admitted to the hospital for treatment. Clinical specimens were inoculated onto 5% sheep blood agar and incubated at 35°C for 18–24 hours. Standard methods including examination of colony morphology and hemolysis and biochemical tests such as tube coagulase, Voges-Proskauer (VP) and fermentation tests for maltose, trehalose and lactose, were used in addition to matrix-assisted laser desorption ionization time of flight mass spectrometry to identify isolates. Antimicrobial susceptibility was determined by broth microdilution using the SensiTitre (Thermofisher Scientific).
(§3) Bacteria were prepared in phosphate-buffered saline (PBS) until a McFarland standard of 0.5 was achieved. The solution was subsequently diluted 1:300 in Mueller-Hinton broth (MHB) to reach a starting inoculum of 1 × 10^5 colony-forming units (CFU/mL). Bacteria were then transferred to a 96-well microtiter plate. Thiazole compounds and antibiotics were added (in triplicate) to wells in the first row of the microtiter plate and then serially diluted along the vertical axis. […] The MIC was categorized as the concentration where there was no visible growth of bacteria observed.

[3] = system: MRSP SP3; assay: Checkerboard assay of thiazole compounds with oxacillin; assay type: cell-based, Staphylococcus pseudintermedius
Procedure: The relationship between the thiazole compounds and oxacillin was assessed via a standard checkerboard assay. Bacteria (MRSP SP3) equivalent to a McFarland standard of 0.5 were prepared in PBS. The bacteria were next diluted in MHB to achieve a starting cell density of 1 × 10^5 CFU/mL. MHB was transferred to all wells of a 96-well microtiter plate. […] Oxacillin was serially diluted along the abscissa of the microtiter plate while the thiazole compound was serially diluted along the ordinate. The plate was incubated for 22–24 hours at 37°C. The MIC of the test compound in combination with oxacillin was determined as the lowest concentration of each compound/antibiotic where no visible growth of bacteria was observed. The fractional inhibitory concentration index (ƩFIC) was calculated for each combination as described previously. A synergistic relationship was classified as an FIC index less than or equal to 0.5. […]

[4] = system: MRSP SP3; assay: Post-antibiotic effect against MRSP; assay type: cell-based, Staphylococcus pseudintermedius; settings: 4 × MIC for one hour
Procedure: A tube containing untreated bacterial cells served as a control. Afterward, the compound/antibiotic was washed out by diluting bacteria 1:1000 in MHB. Counts of CFU for all cultures were obtained after washing. Aliquots (100 μL) of bacteria were removed every hour (for 10 hours), serially diluted in PBS, and plated on TSA plates. TSA plates were incubated for 20 hours at 37°C before CFU values were determined.

[5] = human liver microsomes; cited from earlier work
[6] = design: method as in PMID 24387054; settings: phosphate-buffered saline; cited from earlier work
[7] = system: methicillin-resistant Staphylococcus pseudintermedius; assay: MIC by broth microdilution against MRSP clinical isolates; assay type: cell-based; settings: six MRSP isolates, triplicate
Procedure: as §2, §3

[8] = system: methicillin-sensitive Staphylococcus pseudintermedius; assay: MBC determination against MSSP clinical isolates; assay type: cell-based; settings: nine MSSP isolates
Procedure: as §1

[9] = system: murine macrophage cell line (J774.A1); assay: In vitro cytotoxicity analysis (MTS assay); assay type: cell-based; settings: 10 μg/mL, J774.A1, two hours
Procedure: Compounds were assayed at concentrations of 5 μg/mL, 10 μg/mL, 20 μg/mL, and 40 μg/mL against a murine macrophage cell line (J774.A1) (ATCC TIB-67, American Type Culture Collection (ATCC), Manassas, VA, USA) to determine the potential toxic effect in vitro. Cells were cultured in Dulbeco’s modified Eagle’s medium (Sigma-Aldrich, St. Louis, MO, USA) with 10% fetal bovine serum (USA Scientific, Inc.) at 37°C with 5% CO2. Controls received DMSO alone at a concentration equal to that in drug-treated cell samples. The cells were incubated with the compounds in a 96-well plate at 37°C and 5.0% CO2 for two hours prior to addition of the assay reagent MTS 3-(4,5-dimethylthiazol-2-yl)-5-(3-carboxymethoxyphenyl)-2-(4-sulfophenyl)-2H-tetrazolium) (Promega, Madison, WI, USA). Absorbance readings were taken using a kinetic ELISA microplate reader (Molecular Devices, Sunnyvale, CA, USA). The quantity of viable cells after treatment with each compound was expressed as a percentage of the control, DMSO.
All statistical analyses were performed with GraphPad Prism 6.0 (GraphPad Software, La Jolla, CA). Data generated from cytotoxicity analysis of the thiazole compounds against J774.A1 cells and the 260 and 280 nm cell leakage analysis were analyzed using one-way ANOVA, with post hoc Tukey's multiple comparisons test (P < 0.05).

[10] = system: MRSP SP3; assay: Time-kill analysis against MRSP; assay type: cell-based, Staphylococcus pseudintermedius; settings: 4 × MIC, MRSP SP3, 24 hour incubation at 37°C
Procedure: MRSP SP3 cells in late logarithmic growth phase were diluted to ~1 × 10^6 CFU/mL and exposed to concentrations equivalent to 4 × MIC (in triplicate) of thiazole compounds 1–6 and rifampicin in MHB. Samples (20 μL) were collected after 0, 2, 4, 6, 8, 10, 12, and 24 hours of incubation at 37°C and subsequently serially diluted in PBS. Bacteria were then transferred to TSA plates and incubated at 37°C for 20–24 hours before viable CFU/mL values were determined.

[11] = Kinetic (turbidimetric) solubility in PBS; assay type: physicochemical; settings: phosphate-buffered saline; highest concentration with no precipitate
Procedure: The absorbance of the PBS-containing plate was measured prior to addition of the test agents to determine the background absorbance. After 2 hours, the presence of precipitate was detected by turbidity (absorbance at 540 nm).

[12] = system: MRSP SP3; assay: Re-sensitization of MRSP to oxacillin, broth microdilution; assay type: cell-based; settings: Staphylococcus pseudintermedius, clinical isolate identified as MRSP, read-out: MIC of oxacillin alone
Procedure: MHB was inoculated with MRSP SP3 (5×10^5 CFU/mL), as has been previously described. Aliquots (5 mL) of the bacterial suspension were divided into microcentrifuge tubes. The thiazole compounds tested (at ½ × MIC) were introduced into each tube. After sitting at room temperature for 30 minutes, 1 mL samples from each tube were transferred to a new centrifuge tube prior to addition of oxacillin (at a concentration equivalent to its MIC). Using a 96-well microtiter plate, rows 2–12 were filled with the remaining 4 mL bacterial suspension (containing the thiazole compound). Aliquots (200 μL) from tubes containing both the thiazole compound and oxacillin were transferred to row 1 of the 96-well plate. After aspirating contents in the first row 4–6 times, 100 μL was transferred from wells in row 1 to row 2. This process was repeated to dilute the remaining wells containing no antibiotic. Untreated bacteria served as a control. […] A fold reduction was calculated by comparing the MIC of the antibiotic alone compared to the MIC of the antibiotic given in combination with the thiazole compounds.

For CCCCc1ccc(-c2nc(C)c(/C(C)=N/NC(=N)N)s2)cc1 [Compound 1], the MBC ([1]; Staphylococcus pseudintermedius, read-out: MBC50) was 0.92 µg/mL (≈ 2.79 µM), the “MBC Range” value [1] was 0.35 to 1.38 µg/mL and the MIC50 ([2]; lowest concentration inhibiting growth in 50% of isolates) was 0.35 µg/mL (≈ 1.06 µM). The MIC ([2]; read-out: MIC Range) was 0.17 to 1.38 µg/mL (≈ 0.516 to 4.19 µM), the relationship with oxacillin ([3]; checkerboard assay) was “synergistic” and the ƩFIC ([3]; combination with oxacillin, ≤ 0.5 synergistic, > 0.5 to ≤ 4.0 indifference, > 4 antagonistic) was 0.19. For the same compound, the “Post-antibiotic Effect” value [4] was greater than 9 h, the half-life [5] was “under 30 minutes” and the solubility limit [6] was 20.56 µg/mL (≈ 62.4 µM). The MIC50 ([7]; Staphylococcus pseudintermedius, read-out: MIC50) was 0.69 µg/mL (≈ 2.09 µM), the “MIC Range” value [7] was 0.35 to 1.38 µg/mL and the MBC ([8]; Staphylococcus pseudintermedius, lowest concentration that killed 50% of isolates, read-out: MBC50) was 0.46 µg/mL (≈ 1.4 µM). For the same compound, the “MBC Range” value [8] was 0.17 to 2.77 µg/mL, the “toxicity to murine macrophage cells (MTS assay)” value [9] was “toxic” and the “time required to completely eliminate MRSP” value [10] was “four hours”.

For COC(=O)[C@H]1[C@H]2C[C@@H]3c4[nH]c5cc(OC)ccc5c4CCN3C[C@H]2C[C@@H](OC(=O)c2cc(OC)c(OC)c(OC)c2)[C@@H]1OC [Reserpine, reference compound], the “solubility limit” value [11] was 19.05 µg/mL (≈ 31.3 µM).

Cc1onc(-c2ccccc2)c1C(=O)N[C@@H]1C(=O)N2[C@@H]1SC(C)(C)[C@@H]2C(=O)O [oxacillin, oxacillin sodium salt monohydrate] showed an MIC [12] of 128 µg/mL.
